Several values for one entry are separate records, joined by “and”; a condition that tells them apart may be missing. Equal entries are not always repeated. Structures can show the parent of a compound that is named as a salt.
Tests used:
[1] = Solubility test in purified water (concentration by HPLC)
[2] = cited from earlier work
[3] = system: cholinesterase; details: in rats; cited from earlier work
[4] = system: ferrets; assay: Emetic response assay in ferrets; details: observed for 4 hours
Method: • 8 naïve ferrets/dosing group; Nasal versus Oral • Emetic Response Assay • The assay was based on a validated method. Ferrets were monitored and observed for episodes of retching and/or vomiting for 4 hours. • Two formulations dosed: • Emetic Response Assay • The assay was based on a validated method.

[5] = Intranasal vs oral galantamine PK in canine subject (plasma, CSF); details: dog, 0.8 mg/kg; for Tmax: plasma
[6] = Intranasal vs oral galantamine PK (plasma) in ferrets
[7] = Rivastigmine intranasal vs oral PK in rats (CSF and plasma); details: single intranasal dose
Method: The formulation is administered intranasally or by gastric insertion of a capsule containing the commercial formulation to 12 groups of 6 rats prepped with an indwelling jugular cannula and heparin lock. […] Subsequently, each subject undergoes lumbar puncture with local anaesthesia (xylocalne s.c.), with the retrieval of 50 uL of cerebralspinal fluid (CSF). A paired blood sample from each animal is collected. By assigning groups to different timepoints, the whole PK curve can be assembled. The first CSF sample is collected 5 minutes post dosing and subsequent samples were collected at 20, 50, 75, 100 and 400 minutes.
CSF samples are frozen until analysis.

[8] = system: in vitro epithelial tissue model; assay: TER in in vitro epithelial tissue model with PN159 and galantamine lactate; type: cell-based; details: 25, 50, 100 μM PN159 in the presence of 40 mg/ml galantamine lactate; controls applied apically

COc1ccc2c3c1O[C@H]1C[C@@H](O)C=C[C@@]31CCN(C)C2 [galantamine hydrobromide]
solubility ([1]; purified water, thermodynamic from solid): ~35000 µg/mL and ~121000 µM
generally reported solubility in water [2]: 50 mM

Nc1c2c(nc3ccccc13)CCCC2 [tacrine]
minimal therapeutic concentration (MTC) [3]: 3.5 nmol/gm

O=C(CCC1CCN(Cc2ccccc2)CC1)c1ccc2c(c1)NCCCC2 [TAK-147, 3-[1-(phenylmethyl)-4-piperidinyl]-1-(2,3,4,5-tetrahydro-1H-1-benzazepin-8-yl)-1-propanone]
minimal therapeutic concentration (MTC) [3]: 1.1 nmol/gm

COc1ccc2c3c1O[C@H]1C[C@@H](O)C=C[C@@]31CCN(C)C2 [galantamine]
incidence of retching / emesis, intranasal vs oral [4]: dramatic reduction in emesis
Tmax in CSF, intranasal vs oral [5]: same trend was observed in the CSF
Tmax ([5]; inhaled or intranasal): ~0.5 h
Tmax ([5]; po): 2 to 3 h
bioavailability ([6]; ferret, plasma, other: intranasal compared to oral): ~70%
Tmax, plasma, intranasal compared to oral ([6]; ferrets, intranasal 200 mg/ml formulation vs Reminyl oral solution): decreased Tmax
Cmax, plasma, intranasal compared to oral ([6]; ferrets, intranasal vs oral): about 4 fold

CC(O)C(=O)O.COc1ccc2c3c1O[C@H]1C[C@@H](O)C=C[C@@]31CCN(C)C2 [galantamine lactate]
solubility in water [1]: ~1390 mM

CCN(C)C(=O)Oc1cccc([C@H](C)N(C)C)c1 [rivastigmine]
rivastigmine concentration in CSF after intranasal administration [7]: peaks at a level higher than therapeutic levels reported for plasma following oral dosage in man

COc1ccc2c3c1O[C@H]1C[C@@H](O)C=C[C@@]31CCN(C)C2.O=C(O)[C@H](O)[C@@H](O)[C@H](O)[C@H](O)CO [galantamine gluconate]
solubility in water [1]: ~1390 mM

triton X
effect on TER [8]: did reduce TER
